Data on 18 compounds can be found in patent US8815909B2, “Diaminocyclohexane compounds and uses thereof” (Bristol-Myers Squibb Company, priority 2011, dated 2014).

The term EC50 denotes the concentration at which the effect is half-maximal.

Structures can show the parent of a compound that is named as a salt.

For the first test, the target named is T1, human Y4 receptor (Homo sapiens, UniProt P50391).
T1 construct: expressed in transfected cells
T1 sequence (P50391 whole entry): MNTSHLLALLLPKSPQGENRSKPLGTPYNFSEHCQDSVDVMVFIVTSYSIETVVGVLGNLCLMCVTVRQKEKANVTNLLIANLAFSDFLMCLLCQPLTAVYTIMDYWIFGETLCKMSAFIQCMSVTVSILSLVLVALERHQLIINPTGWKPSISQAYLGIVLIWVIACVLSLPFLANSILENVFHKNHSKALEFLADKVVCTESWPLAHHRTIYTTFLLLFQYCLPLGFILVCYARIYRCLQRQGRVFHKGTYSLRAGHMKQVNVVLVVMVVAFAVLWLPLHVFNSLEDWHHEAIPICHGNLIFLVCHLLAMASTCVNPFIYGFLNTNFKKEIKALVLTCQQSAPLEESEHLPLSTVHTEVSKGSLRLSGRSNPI
The experiment in a line: NPY4 cAMP HTRF Agonist Assay (inhibitory cAMP assay, Gi activation by Y4 agonism). The class given is cell-based. To be noted: TABLE 2, R2 is Phenyl-CN; read-out: hY4 CAMP EC50. The method, boiled down: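 Y4 agonism read as lowered forskolin-stimulated cAMP (HTRF, 1 h detection at room temperature). Stable human Y4 CHO clone, 5000 cells/well, incubated 30 min at room temperature with compounds plus forskolin and IBMX in PBS.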
(In general: Time-resolved FRET reads energy transfer from a long-lived donor to a nearby acceptor.)
As to `N#Cc1ccc(N2C[C@@H]3C[C@H](N[C@@H]4CCCC[C@H]4Nc4ncc(-c5cccc(C#N)c5)o4)[C@H]2C3)cc1` [Example 266], the EC50 worked out at 0.181 µM.

Regarding `N#Cc1ccc(N2CCC[C@H](N[C@@H]3CCCC[C@H]3Nc3cc(-n4cccc4)ccn3)C2)cc1` [Example 280], the EC50 was 0.043 µM.

Staying with this test, now noted: TABLE 4, R2 is Pyridinyl-CN; read-out: hY4 CAMP EC50.
In the case of `N#Cc1ccc(N2CCC[C@H](N[C@@H]3CCCCC3Nc3ncc(-c4ccc(OC(F)(F)F)cc4)o3)C2)cn1` (stereo partly drawn) [Example 309], the EC50 was determined as 0.01 µM.

The test is the same for the next values; noted with them: human Y4 receptor, cAMP; read-out: hY4 CAMP EC50.
For `N#Cc1cnc(N2C[C@@H]3C[C@H](N[C@@H]4CCCC[C@H]4Nc4cc(Br)ccn4)[C@H]2C3)nc1` [Example 441], the EC50 turned out to be 0.803 µM.

As for `N#Cc1cnc(N2CCC[C@H](N[C@@H]3CCCC[C@H]3Nc3cc(-c4cccc(C(N)=O)c4)ccn3)C2)nc1` [Example 430], the EC50 came out at 0.142 µM.

With `NC(=O)c1cccc(-c2ccnc(N[C@@H]3CCCC[C@H]3N[C@H]3CCCN(c4cnc(C(F)(F)F)nc4)C3)c2)c1` [Example 408], the EC50 amounted to 0.121 µM.

As to `NC(=O)c1cccc(-c2cnc(N[C@@H]3CCCC[C@H]3N[C@H]3CCCN(c4ncc(C(F)(F)F)cn4)C3)o2)c1` [Example 398], the EC50 was found to be 0.005 µM.

As for `Cc1nc(-c2ncc(N3CCC[C@H](N[C@@H]4CCCC[C@H]4Nc4cc(-c5ccc(F)c(F)c5)ccn4)C3)cn2)no1` [Example 467], the EC50 was 0.002 µM.

As for `CCc1nc(-c2ccc(N3CCC[C@H](N[C@@H]4CCCC[C@H]4Nc4cc(-c5cccc(C(N)=O)c5)ccn4)C3)nc2)no1` [Example 447], the EC50 is 0.008 µM.

Regarding `COC(=O)Nc1cccc(-c2ccnc(N[C@@H]3CCCC[C@H]3N[C@H]3CCCN(c4ccc(-c5noc(C6CC6)n5)cc4)C3)c2)c1` [Example 458], the 50% effective concentration (EC50) is 0.0002 µM.

For `Cn1cnc(-c2ccc(N3CCC[C@H](N[C@@H]4CCCC[C@H]4Nc4cc(-c5cccc(O)c5)ccn4)C3)cc2)n1` [Example 456], the EC50 is 0.028 µM.

Still in this test, the particulars now being: human Y4 stable CHO clonal cells, forskolin + IBMX; read-out: NPY4 cAMP HTRF Agonist Assay EC50.
In the case of `c1ccc(-c2ccnc(N[C@@H]3CCCC[C@H]3N[C@H]3CCCN(c4ccc(-n5cncn5)cc4)C3)n2)cc1` [Example 91, (1R,2R)—N1-((S)-1-(4-(1H-1,2,4-Triazol-1-yl)phenyl)piperidin-3-yl)-N2-(4-phenylpyrimidin-2-yl)cyclohexane-1,2-diamine bis-trifluoroacetate], the EC50 came out at 0.288 µM.

Take `N#Cc1ccnc(N[C@@H]2CCCC[C@H]2N[C@H]2CCCN(c3ccc(C(F)(F)F)cc3)C2)c1` [Example 114, 2-(((1R,2R)-2-(((S)-1-(4-(trifluoromethyl)phenyl)piperidin-3-yl)amino)cyclohexyl)amino)isonicotinonitrile, bis trifluoroacetic acid salt]: the EC50 was found to be 0.07 µM.

Turning to `Cc1ccn(-c2ccc(N3CCC[C@H](N[C@@H]4CCCC[C@H]4Nc4ncc(-c5ccc(OC(F)(F)F)cc5)o4)C3)cc2)n1` [Example 68, (1R,2R)—N1-((S)-1-(4-(3-Methyl-1H-pyrazol-1-yl)phenyl)piperidin-3-yl)-N2-(5-(4-(trifluoromethoxy)phenyl)oxazol-2-yl)cyclohexane-1,2-diamine bis-trifluoroacetate], the EC50 was 0.489 µM.

On to `CCOC(=O)Nc1cccc(-c2cnc(N[C@@H]3CCCC[C@H]3N[C@H]3CCCN(c4cnc(C(F)(F)F)nc4)C3)o2)c1` [Example 107, Ethyl (3-(2-(((1R,2R)-2-(((S)-1-(2-(trifluoromethyl)pyrimidin-5-yl)piperidin-3-yl)amino)cyclohexyl)amino)oxazol-5-yl)phenyl)carbamate], for which the EC50 is 0.004 µM.

The test is the same for the next values; noted with them: second TABLE 1, R2 is Phenyl-CF3; read-out: hY4 CAMP EC50.
Regarding `FC(F)(F)c1ccc(N2CCC[C@H](N[C@@H]3CCCC[C@H]3Nc3cc(-c4ccc5scnc5c4)ccn3)C2)cc1` [Example 157], the EC50 was determined as 0.194 µM.

On to `CNC(=O)Cc1cccc(-c2ccnc(N[C@@H]3CCCC[C@H]3N[C@H]3CCCN(c4ccc(C(F)(F)F)cc4)C3)c2)c1` [Example 175], for which the EC50 came out at 0.002 µM.

`FC(F)(F)c1ccc(N2CCC[C@H](N[C@@H]3CCCC[C@H]3NC3=NOC(c4ccccc4)C3)C2)cc1` (stereo partly drawn) [Example 180]: the EC50 was found to be 0.054 µM.
